Laboratory results: PubChem BioAssay (NCI)
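Exposure lasted 48 hours, with cells grown in 96-well plates and compounds tested at five concentrations. GI50: concentration for 50% inhibition of growth. TGI marks complete inhibition of growth.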

Tests used:
Assay in all cases: NCI anticancer screen, dose series, 48 h
UO-31 renal = system: UO-31 renal
OVCAR-3 ovarian = system: OVCAR-3 ovarian
SR leukemia = system: SR leukemia
BT-549 breast = system: BT-549 breast
HOP-92 NSCLC = system: HOP-92 NSCLC
MCF7 breast = system: MCF7 breast
MOLT-4 leukemia = system: MOLT-4 leukemia
A549 NSCLC = system: A549 NSCLC
SN12C renal = system: SN12C renal
T-47D breast = system: T-47D breast

Row | SMILES | TGI (UO-31 renal) | TGI (OVCAR-3 ovarian) | TGI (SR leukemia) | TGI (BT-549 breast) | TGI (HOP-92 NSCLC) | TGI (MCF7 breast) | TGI (MOLT-4 leukemia) | TGI (A549 NSCLC) | TGI (SN12C renal) | GI50 (UO-31 renal) | GI50 (OVCAR-3 ovarian) | GI50 (SR leukemia) | GI50 (BT-549 breast) | GI50 (HOP-92 NSCLC) | GI50 (MCF7 breast) | GI50 (MOLT-4 leukemia) | GI50 (A549 NSCLC) | GI50 (SN12C renal) | GI50 (T-47D breast) | TGI (T-47D breast)
1 | Nc1nc(C(=O)O)c(N=Nc2ccccc2)c(=O)[nH]1 | > 100 µM | > 100 µM | > 100 µM | > 100 µM | > 100 µM | > 100 µM | > 100 µM | > 100 µM | > 100 µM | – | – | – | – | – | – | – | – | – | – | –
2 | O=C(Cc1ccccc1)C(c1ccccc1)S(=O)(=O)c1ccccc1 (stereo not drawn) | > 100 µM | > 100 µM | > 100 µM | – | > 100 µM | – | > 100 µM | > 100 µM | > 100 µM | – | – | – | – | – | – | – | – | – | – | –
3 | Clc1nc(Cl)c2ncn(CCOCCn3cnc4c(Cl)nc(Cl)nc43)c2n1 | 1.25 µM | 0.346 µM | 54.4 µM | 0.392 µM | 0.687 µM | 0.455 µM | > 100 µM | 1.3 µM | 0.433 µM | 0.633 µM | 0.199 µM | 0.241 µM | 0.208 µM | 0.2 µM | 0.192 µM | 0.336 µM | 0.312 µM | 0.214 µM | – | –
4 | O=C1/C(=C/c2ccccc2O)N=C(c2ccccc2)N1c1cc(C(F)(F)F)ccc1Cl | > 100 µM | > 100 µM | > 100 µM | – | 53 µM | > 100 µM | > 100 µM | > 100 µM | > 100 µM | 94.2 µM | 54.2 µM | 5.51 µM | – | 19.1 µM | 3.04 µM | > 100 µM | 75.7 µM | 53.6 µM | 6.68 µM | > 100 µM
5 | CC(N)CC(=O)O (stereo not drawn) | > 5000 µM | > 5000 µM | > 5000 µM | – | > 5000 µM | – | > 5000 µM | > 5000 µM | > 5000 µM | – | – | – | – | – | – | – | – | – | – | –
6 | COc1cc(/C=C/C(=O)O[C@H]2[C@H](O[C@@H]3O[C@@H](C)[C@H](O)[C@@H](O)[C@H]3O)[C@@H](O)[C@H](OCCc3ccc(O)c(O)c3)O[C@@H]2COC2OCC(O)(CO)C2O)ccc1O (stereo partly drawn) | > 100 µM | > 100 µM | > 100 µM | 41.8 µM | > 100 µM | – | > 100 µM | > 100 µM | > 100 µM | > 100 µM | > 100 µM | > 100 µM | 23.8 µM | 0.402 µM | – | > 100 µM | > 100 µM | > 100 µM | > 100 µM | > 100 µM
7 | O=C(CO)C1CC2C=CC1C2 (stereo not drawn) | > 100 µM | > 100 µM | – | – | > 100 µM | – | > 100 µM | > 100 µM | > 100 µM | – | – | – | – | – | – | – | – | – | – | –
8 | Cc1ccc(Cl)cc1-n1c(C)nc2c(cnn2-c2ccnc3c(C(F)(F)F)cccc23)c1=O | > 100 µM | > 100 µM | – | > 100 µM | > 100 µM | > 100 µM | > 100 µM | > 100 µM | > 100 µM | > 100 µM | > 100 µM | – | > 100 µM | > 100 µM | > 100 µM | > 100 µM | > 100 µM | > 100 µM | > 100 µM | > 100 µM
9 | O=C1C(Sc2ccc3ccccc3c2)=C(Sc2ccc3ccccc3c2)C(=O)c2ccccc21 | 15.8 µM | – | – | 83.2 µM | 22.3 µM | 40.2 µM | 5.9 µM | 21.7 µM | 24.7 µM | – | – | – | – | – | – | – | – | – | – | 4.62 µM
10 | CC(=O)CC(=O)CCC(=O)Nc1cccc(C(F)(F)F)c1 | > 100 µM | > 100 µM | – | – | > 100 µM | – | > 100 µM | > 100 µM | > 100 µM | – | – | – | – | – | – | – | – | – | – | –
11 | c1ccc2c(CNCCN3CCNCC3)c3ccccc3c(CNCCN3CCNCC3)c2c1 | > 100 µM | 51.7 µM | – | 75.6 µM | – | 50.2 µM | 27.5 µM | > 100 µM | – | > 100 µM | 18.9 µM | – | 28.3 µM | – | 11.5 µM | 3.88 µM | 35.1 µM | – | 19.9 µM | 81.9 µM
12 | O=[N+]([O-])/C=C/c1ccc(Cl)cc1Cl | 29.8 µM | 53.6 µM | 47 µM | – | 31 µM | – | 45.7 µM | 48.5 µM | – | – | – | – | – | – | – | – | – | – | – | –
13 | N#CC1C(N)=NNC12Nc1ccccc1S2 (stereo not drawn) | > 100 µM | 43.9 µM | 29.9 µM | 57.4 µM | > 100 µM | > 100 µM | – | 31.5 µM | 60.2 µM | 33.1 µM | 10.3 µM | 8.81 µM | 18.7 µM | 34.7 µM | 37.5 µM | – | 9.61 µM | 24.4 µM | 4.04 µM | 50.3 µM
14 | COC(=O)c1cc([N+](=O)[O-])cc([N+](=O)[O-])c1Cl | 3.95 µM | 3.2 µM | – | 22.6 µM | 3.04 µM | 4.6 µM | – | 46.8 µM | 11 µM | 1.86 µM | 1.78 µM | – | 10.7 µM | 1.64 µM | 1.94 µM | – | 20.4 µM | 3.15 µM | 1.71 µM | 4.21 µM
15 | CC1CCC2C(CN(CC3=C(C(F)(F)F)OC4OC5(C)CCC6C(C)CCC3C46OO5)CC3=C(C(F)(F)F)OC4OC5(C)CCC6C(C)CCC3C46OO5)=C(C(F)(F)F)OC3OC4(C)CCC1C32OO4 (stereo not drawn) | > 100 µM | – | – | 34.1 µM | 33.4 µM | 59.9 µM | 39.9 µM | 66.3 µM | 48.9 µM | 29.1 µM | – | – | 13.1 µM | 6.3 µM | 20.9 µM | 9.11 µM | 12.1 µM | 18.7 µM | 3.97 µM | 27.2 µM
16 | C=C1C(=O)O[C@H]2[C@H]1CC/C(COC(=O)NCc1c[nH]c3ccc(F)cc13)=C\CC[C@@]1(C)O[C@@H]21 | 2.87 µM | 3.07 µM | 5.85 µM | 2.5 µM | 3.04 µM | – | 5.07 µM | 10.9 µM | 2.84 µM | 1.52 µM | 0.984 µM | 0.266 µM | 1.15 µM | 1.48 µM | – | 1.42 µM | 3.17 µM | 1.32 µM | – | –
17 | CCOC(=O)C(CCCNC(=O)OC(C)(C)C)N(Cc1ccc(OC)cc1OC)C(=O)CC(=O)CP(=O)(OCC)OCC (stereo not drawn) | > 100 µM | > 100 µM | > 100 µM | – | > 100 µM | – | > 100 µM | > 100 µM | > 100 µM | – | – | – | – | – | – | – | – | – | – | –
